Reference: publication PMC5848512, “The Penicillium chrysogenum transporter PcAraT enables high-affinity, glucose-insensitive L-arabinose transport in Saccharomyces cerevisiae” (Biotechnology for Biofuels, 2018)

Assays:
[1] = target: T1, PcAraT (Penicillium rubens, UniProt B6HE12); experiment: inhibition of […]-L-arabinose uptake in transporter-deleted yeast cells; format: cell-based
T1 construct: gene Pc20g01790; full-length ORF, codon-pair optimized synthetic gene, pRS313-PcaraT (HXT7 promoter) in S. cerevisiae DS68625 (hxt1-7, gal2 deleted)
T1 sequence (B6HE12 1-511): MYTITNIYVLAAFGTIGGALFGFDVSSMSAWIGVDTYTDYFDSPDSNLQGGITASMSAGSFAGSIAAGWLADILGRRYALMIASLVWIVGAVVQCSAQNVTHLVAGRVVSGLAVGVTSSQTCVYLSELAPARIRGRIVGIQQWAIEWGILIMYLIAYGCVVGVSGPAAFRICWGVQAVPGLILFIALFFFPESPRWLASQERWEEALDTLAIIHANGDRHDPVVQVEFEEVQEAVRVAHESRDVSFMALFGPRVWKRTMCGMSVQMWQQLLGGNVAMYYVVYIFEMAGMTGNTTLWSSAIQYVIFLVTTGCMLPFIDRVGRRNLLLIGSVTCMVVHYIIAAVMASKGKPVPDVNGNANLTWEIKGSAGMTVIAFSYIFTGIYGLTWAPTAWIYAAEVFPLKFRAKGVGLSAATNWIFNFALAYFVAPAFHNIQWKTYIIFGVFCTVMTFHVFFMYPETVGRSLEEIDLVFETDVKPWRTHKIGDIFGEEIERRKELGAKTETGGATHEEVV

[2] = target: T2, Gal2 (Saccharomyces cerevisiae, UniProt P13181); experiment: as above; format: cell-based
T2 construct: full-length, pRS313-GAL2 (HXT7 promoter) in S. cerevisiae DS68625 (hxt1-7, gal2 deleted)
T2 sequence (P13181 1-574): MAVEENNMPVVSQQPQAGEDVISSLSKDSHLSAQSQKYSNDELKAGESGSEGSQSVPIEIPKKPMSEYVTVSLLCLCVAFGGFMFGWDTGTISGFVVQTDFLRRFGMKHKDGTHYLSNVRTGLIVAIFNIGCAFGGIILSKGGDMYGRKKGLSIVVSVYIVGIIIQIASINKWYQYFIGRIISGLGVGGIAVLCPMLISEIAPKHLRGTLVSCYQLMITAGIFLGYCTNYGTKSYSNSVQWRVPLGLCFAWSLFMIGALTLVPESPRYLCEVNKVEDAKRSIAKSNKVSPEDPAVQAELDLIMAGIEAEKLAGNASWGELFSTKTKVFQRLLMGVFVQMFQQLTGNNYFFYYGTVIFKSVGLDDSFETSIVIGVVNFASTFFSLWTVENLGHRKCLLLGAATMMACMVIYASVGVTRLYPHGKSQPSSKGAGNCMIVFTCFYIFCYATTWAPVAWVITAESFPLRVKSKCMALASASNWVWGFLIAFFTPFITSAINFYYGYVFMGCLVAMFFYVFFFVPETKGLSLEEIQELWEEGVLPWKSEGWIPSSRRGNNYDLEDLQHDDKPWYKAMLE

| inhibition at 100000 µM [1] | inhibition at 100000 µM [2] | SMILES |
| --- | --- | --- |
| 63% | 85% | OC[C@H]1OC(O)[C@H](O)[C@@H](O)[C@@H]1O (stereo partly drawn) [D-glucose] |
| 22% | 29% | OC1OC[C@@H](O)[C@H](O)[C@H]1O (stereo partly drawn) [D-xylose] |
